In the test the target is T1, ADAMTS-4 (Homo sapiens, UniProt O75173).
T1 construct: made in house
T1 sequence (O75173 213-837): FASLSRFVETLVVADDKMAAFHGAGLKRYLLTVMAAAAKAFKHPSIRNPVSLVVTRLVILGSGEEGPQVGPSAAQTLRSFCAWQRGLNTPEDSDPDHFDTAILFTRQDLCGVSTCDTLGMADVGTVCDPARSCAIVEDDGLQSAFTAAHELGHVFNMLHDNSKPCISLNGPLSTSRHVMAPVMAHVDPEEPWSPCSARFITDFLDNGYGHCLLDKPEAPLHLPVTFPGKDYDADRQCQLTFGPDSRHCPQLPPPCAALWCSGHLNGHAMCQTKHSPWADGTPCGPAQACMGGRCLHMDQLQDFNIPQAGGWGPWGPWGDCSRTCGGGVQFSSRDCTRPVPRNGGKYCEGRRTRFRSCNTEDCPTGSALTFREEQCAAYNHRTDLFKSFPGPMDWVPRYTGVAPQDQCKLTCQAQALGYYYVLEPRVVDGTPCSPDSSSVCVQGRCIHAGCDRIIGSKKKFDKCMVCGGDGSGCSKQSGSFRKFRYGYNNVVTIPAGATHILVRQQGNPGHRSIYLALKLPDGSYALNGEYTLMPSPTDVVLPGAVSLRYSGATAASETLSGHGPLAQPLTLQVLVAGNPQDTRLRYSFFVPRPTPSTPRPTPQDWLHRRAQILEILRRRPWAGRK
The experiment in a line: Versican digestion assay (V1-5GAG, sandwich ELISA), ADAMTS-4. The class given is biochemical. The following applies: protein substrate V1-5GAG; mean ± SEM (n = 3); read-out: IC50 (μM) V1-5GAG ATS4. The procedure: All enzyme assays were conducted in TNC-B buffer (50 mM Tris–HCl, pH 7.5, 150 mM NaCl, 10 mM CaCl2, and 0.02% NaN3) at 37 °C. To avoid the formation of inhibitor aggregates, the detergent Brij-35 (0.05%) was added to the assay buffer. No aggregation was visually observed at concentrations up to 2 mM. The inhibitor stock solutions in DMSO (10 mM) were diluted at different concentrations in assay buffer and incubated with ADAMTS-4 or ADAMTS-5 for 2 h at 37 °C. Percent of inhibition was calculated from control reactions containing only DMSO. IC50 values were determined using the formula: vi/v0 = 1/(1 + [I]/IC50) where vi is the initial velocity of substrate cleavage in the presence of the inhibitor at concentration [I] and v0 is the initial velocity in the presence of an equal concentration (v/v) of DMSO.
ADAMTS-5 full-length (FL) (final concentration 0.4 nM), ADAMTS-5 MDTCS (0.4 nM) ADAMTS-5 MD (26 nM) or ADAMTS-4 (5.5 nM) were incubated with different concentrations of inhibitors or DMSO for 2 h at 37 °C in TNC-B buffer before addition of V1-5GAG (50 nM). At different time points (0–20 min), sub-samples were removed and reactions were stopped with EDTA. Maxisorp plates (VWR, Lutterworth, UK) were coated with 5 μg/mL anti-DPEEAE neoepitope antibody (Cat n. PA1-1748A, Life Technologies, Paisley, UK) in carbonate buffer pH 9.6 (16 h, 4 °C). This neoepitope antibody specifically recognizes the N-terminal versican fragment versikine, generated when ADAMTS-5 cleaves versican at the Glu441↓442Ala bond. Washing steps were performed in triplicate with 300 μL phosphate buffered-saline (PBS) containing 0.1% Tween-20 between each step. Plates were blocked with 3% bovine serum albumin (BSA)/PBS for 2 h, at RT. The samples from the digestion experiments were diluted in 3% BSA/PBS and added to the plate (100 μL, 2 h, RT). Bound versikine fragments were detected using anti-G1 monoclonal antibody (Cat n. ab171887, Abcam, Cambridge, UK) (3 μg/mL in 0.5% BSA/PBS, 1.5 h, RT), followed by horseradish peroxidase (HRP)-conjugated anti-mouse antibodies (Cat. N. P044701-2, Agilent Technologies LTD, Cheadle, UK) (2.4 μg/mL, 1 h, RT). The assay was developed by addition of o-phenylenediamine dihydrochloride (OPD, Cat n. 34006, Sigma Aldrich, Gillingham, UK) for 10 min and reactions were stopped with 2 M H2SO4. The absorbance was measured at 492 nm using a BioTeK Epoch (BioTek, Swindon, UK) plate reader. For each dilution, the amount of neoepitope generated was derived from a standard curve (0–1.56 nM) of V1-5GAG completely digested with ADAMTS-5. Initial velocities were calculated from the concentration of versikine generated as a function of reaction time and IC50 values were determined.
For inhibition studies, initial rates of proteolysis (< 20% cleavage) were analyzed between 0 and 20 min. For determination of the specificity constants (kcat/Km), digestion reactions were allowed to occur to completion (0–2 h). Data were analyzed as previously described.
On the technique in general: An ELISA detects its analyte on a solid surface through an enzyme-linked reagent.

The IC50 is the concentration that gives 50% inhibition.

Each structure is given as a SMILES string.

As to `CCC(C)N(Cc1cn(CCCOC2OC(CO)C(O)C(O)C2NC(C)=O)nn1)S(=O)(=O)c1ccc(-c2ccccc2)cc1` (mixture of isomers) [Compound 4b], the IC50 was greater than 100 µM.

As for `CCC(C)N(Cc1cn(CCCOC(=O)c2ccccc2)nn1)S(=O)(=O)c1ccc(-c2ccccc2)cc1` (racemic) [Compound 6], the IC50 was greater than 100 µM.

The values above are taken from paper PMC7806935, “Exosite inhibition of ADAMTS-5 by a glycoconjugated arylsulfonamide” (Scientific Reports, 2021).
